ChEMBL document CHEMBL5335870, “Discovery of Hepatitis B Virus Surface Antigen Suppressor GS-8873” (ACS Med Chem Lett, 2024)
Values belong to the compound of their own block, whether it stands above or below them.

How the values were obtained:
Hepatitis B virus = assay: Antiviral activity against genotype D HBV infected in sodium taurocholate co-transporting polypeptide receptor-expressing stable HepG2 cell line assessed as suppression of HBsAg level incubated for 5 days by multiplex chemiluminescent MSD assay; assay type: functional, organism-based; conditions: HepG2, 120 h
[1] = Clearance in Sprague-Dawley rat at […], iv measured after 24 hrs by LC/MS/MS method; assay type: ADME, organism-based; conditions: in vivo
[2] = Oral bioavailability in Sprague-Dawley rat after 24 hrs by LC/MS/MS method; assay type: ADME, organism-based; conditions: in vivo
[3] = AUC (0 to infinity) Sprague-Dawley rat at 1 mg/kg, iv; assay type: ADME, organism-based; design: dose 1 mg/kg, route iv; conditions: in vivo
[4] = Clearance in Sprague-Dawley rat at 1 mg/kg, iv; assay type: ADME, organism-based; conditions: in vivo
[5] = Volume of distribution at steady state in Sprague-Dawley rat at 1 mg/kg, iv; assay type: ADME, organism-based; conditions: in vivo, read-out: Vdss
[6] = Half life in Sprague-Dawley rat at 1 mg/kg, iv; assay type: ADME, organism-based; conditions: in vivo
[7] = MRT in Sprague-Dawley rat at 1 mg/kg, iv; assay type: ADME, organism-based; conditions: in vivo
[8] = Oral bioavailability in Sprague-Dawley rat at 3 mg/kg; assay type: ADME, organism-based; conditions: in vivo
[9] = AUC (0 to infinity) Beagle dog at 0.5 mg/kg, iv; assay type: ADME, organism-based, Canis lupus familiaris; design: dose 0.5 mg/kg, route iv; conditions: in vivo
[10] = Clearance in Beagle dog at 0.5 mg/kg, iv; assay type: ADME, organism-based, Canis lupus familiaris; conditions: in vivo
[11] = Volume of distribution at steady state in Beagle dog at 0.5 mg/kg, iv; assay type: ADME, organism-based, Canis lupus familiaris; conditions: in vivo, read-out: Vdss
[12] = Half life in Beagle dog at 0.5 mg/kg, iv; assay type: ADME, organism-based, Canis lupus familiaris; conditions: in vivo
[13] = MRT in Beagle dog at 0.5 mg/kg, iv; assay type: ADME, organism-based, Canis lupus familiaris; conditions: in vivo
[14] = Oral bioavailability in Beagle dog at 0.5 mg/kg; assay type: ADME, organism-based, Canis lupus familiaris; conditions: in vivo
[15] = AUC (0 to infinity) Cynomolgus monkey at 0.4 mg/kg, iv; assay type: ADME, organism-based, Macaca fascicularis; design: dose 0.4 mg/kg, route iv; conditions: in vivo
[16] = Clearance in Cynomolgus monkey at 0.4 mg/kg, iv; assay type: ADME, organism-based, Macaca fascicularis; conditions: in vivo
[17] = Volume of distribution at steady state in Cynomolgus monkey at 0.4 mg/kg, iv; assay type: ADME, organism-based, Macaca fascicularis; conditions: in vivo, read-out: Vdss
[18] = Half life in Cynomolgus monkey at 0.4 mg/kg, iv; assay type: ADME, organism-based, Macaca fascicularis; conditions: in vivo
[19] = MRT in Cynomolgus monkey at 0.4 mg/kg, iv; assay type: ADME, organism-based, Macaca fascicularis; conditions: in vivo
[20] = Oral bioavailability in Cynomolgus monkey at 0.5 mg/kg; assay type: ADME, organism-based, Macaca fascicularis; conditions: in vivo
[21] = AUC (0 to infinity) Rhesus monkey at 0.5 mg/kg, iv; assay type: ADME, organism-based, Macaca mulatta; design: dose 0.5 mg/kg, route iv; conditions: in vivo
[22] = Clearance in Rhesus monkey at 0.5 mg/kg, iv; assay type: ADME, organism-based, Macaca mulatta; conditions: in vivo
[23] = Volume of distribution at steady state in Rhesus monkey at 0.5 mg/kg, iv; assay type: ADME, organism-based, Macaca mulatta; conditions: in vivo, read-out: Vdss
[24] = Half life in Rhesus monkey at 0.5 mg/kg, iv; assay type: ADME, organism-based, Macaca mulatta; conditions: in vivo
[25] = Lipophilicity, logD of the compound; assay type: physicochemical; conditions: octanol/water
[26] = In vivo clearance in rat; assay type: ADME, organism-based
[27] = In vivo clearance in dog; assay type: ADME, organism-based, Canis lupus familiaris
[28] = In vivo clearance in cynomolgus monkey; assay type: ADME, organism-based, Macaca fascicularis
[29] = Hepatic extraction in rat; assay type: ADME; conditions: read-out: ERH
[30] = Hepatic extraction in dog; assay type: ADME, Canis lupus familiaris; conditions: read-out: ERH
[31] = Hepatic extraction in cynomolgus monkey; assay type: ADME, Macaca fascicularis; conditions: read-out: ERH
[32] = Oral bioavailability in rat at 5 mg/kg; assay type: ADME, organism-based; conditions: in vivo
[33] = Oral bioavailability in dog at 5 mg/kg; assay type: ADME, organism-based, Canis lupus familiaris; conditions: in vivo
[34] = Oral bioavailability in cynomolgus monkey at 5 mg/kg; assay type: ADME, organism-based, Macaca fascicularis; conditions: in vivo

Compound: CC(C)(C)N1Cc2cc(OCC3COC3)c(Cl)cc2-c2cc(=O)c(C(=O)O)cn21
- EC50 (Hepatitis B virus): 7.6 nM
- clearance [1]: 20 mL/min/kg
- bioavailability [2]: 91%

Compound: COCCCOc1cc2c(cc1OCC(F)F)-c1cc(=O)c(C(=O)O)cn1N1[C@@H]2CCC1(C)C
- EC50 (Hepatitis B virus): 5.8 nM
- clearance [1]: 13.8 mL/min/kg
- bioavailability [2]: 58%

Compound: COCCCOc1cc2c(cc1OC)-c1cc(=O)c(C(=O)O)cn1[C@H](C(C)C)C2
- EC50 (Hepatitis B virus): 15 nM
- logD [25]: 2.1
- clearance [26]: 18.3 mL/min/kg
- clearance [27]: 11.2 mL/min/kg
- clearance [28]: 11.3 mL/min/kg
- hepatic extraction ratio [29]: 0.26
- hepatic extraction ratio [30]: 0.37
- hepatic extraction ratio [31]: 0.43
- bioavailability [32]: 56%
- bioavailability [33]: 90%
- bioavailability [34]: 84%

Compound: COCCCOc1cc2c(cc1OC(C)C)-c1cc(=O)c(C(=O)O)cn1N1[C@@H]2CCC1(C)C
- EC50 (Hepatitis B virus): 6.4 nM
- clearance [1]: 16.2 mL/min/kg
- bioavailability [2]: 95%

Now from value to compound:

- EC50 (Hepatitis B virus): 7.5 nM
- clearance [1]: 20 mL/min/kg
- bioavailability [2]: > 100%
Compound: CCOc1cc2c(cc1OCCCOC)[C@H]1CCC(C)(C)N1n1cc(C(=O)O)c(=O)cc1-2

- EC50 (Hepatitis B virus): 1.7 nM
- clearance [1]: 4.5 mL/min/kg
- bioavailability [2]: 66%
Compound: COCCCOc1cc2c(cc1Cl)-c1cc(=O)c(C(=O)O)cn1N1[C@@H]2CCC1(C)C

- EC50 (Hepatitis B virus): 4 nM
- clearance [1]: 4.5 mL/min/kg
- bioavailability [2]: 91%
- AUC(0-inf) [3]: 8.44 µM·h
- clearance [4]: 4.5 mL/min/kg
- Vd [5]: 0.69 L/kg
- half-life [6]: 2.5 h
- MRT [7]: 2.6 h
- bioavailability [8]: 91%
- AUC(0-inf) [9]: 4.91 µM·h
- clearance [10]: 4 mL/min/kg
- Vd [11]: 0.85 L/kg
- half-life [12]: 5.1 h
- MRT [13]: 3.6 h
- bioavailability [14]: 94%
- AUC(0-inf) [15]: 5.93 µM·h
- clearance [16]: 2.5 mL/min/kg
- Vd [17]: 1.23 L/kg
- half-life [18]: 6.7 h
- MRT [19]: 8.1 h
- bioavailability [20]: 91%
- AUC(0-inf) [21]: 6.41 µM·h
- clearance [22]: 3 mL/min/kg
- Vd [23]: 1.14 L/kg
- half-life [24]: 5.5 h
Compound: COCCCOc1cc2c(cc1COC)-c1cc(=O)c(C(=O)O)cn1N1[C@@H]2CCC1(C)C
